These results are taken from patent publication US20240261274A1, “TREATMENT OF MYC-DRIVEN CANCERS WITH GSPT1 DEGRADERS” (MONTE ROSA THERAPEUTICS, INC., priority 2021, published 2024).

Molecules are shown by their SMILES.

The target in one experiment is GSPT1 (Homo sapiens, UniProt P15170+Q96SW2). Briefly: GSPT1 levels in NCI-H1155 tumors by western blotting (compound 210). It counts as in vivo, mice. Set-up: from tissue; host or cells: NCI-H1155 subcutaneous xenograft tumours from BALB/c nude mice. Particulars: all three dose levels, 6 hours after the third dose. On the procedure:
GSPT1 levels in tumors were determined by western blotting 6 hours after the third dose. Western blotting was performed as described previously using GAPDH as loading control.
(In general: In western blotting, separated proteins are transferred to a membrane and probed.)

Another experiment deals with NSCLC cell lines. Briefly: Viability assay, 72 hr CellTiter Glo, NSCLC cell line panel (Compound 345). Format: cell-based. Particulars: panel of NSCLC cell lines. The procedure: EC50 scores for Compound 345 were measured in a panel of NSCLC cell lines. Each cell line was scored for NSCLC biomarkers and EC50 values were plotted against NSCLC biomarker score. Results of this experiment are shown in the scatter plot of FIG. 11A. High N-Myc expressing cell lines were enriched in the lower right quadrant of the scatterplot, indicating high NSCLC biomarker scores and high sensitivity to Compound 345.
Viability assay: Compound 345 was tested in a panel of 156 lung cancer cell lines (including non small cell lung cancer (NSCLC) and small cell lung cancer (SCLC) cell lines and 46 lymphoma cell lines using a 72 hr CellTiter Glo assay format. Cells were sub-cultured as recommended by the providers (ATCC, DSMZ) and incubated at 37° C., 5% CO2. All cells were authenticated and confirmed by Short Tandem Repeat (STR) profiling. Briefly, each lung cancer cell line was preferentially seeded in 384-well plates (100 μL/well) at a density previously determined to be in log growth phase 72 hour post-seeding (typically in the 400-2400 cells/well range). […] Cell viability was assessed using the CellTiter-Glo® 2.0 Assay as recommended by the Manufacturer (Promega, Cat. No. G7558, Lot. No. 0000385738) and measurements performed on the EnSpire multimode plate reader (Perkin Elmer). […]
A general note: Cellular ATP, detected with luciferase, serves as a proxy for viable cell number.

GSPT1, sequence (P15170 whole entry): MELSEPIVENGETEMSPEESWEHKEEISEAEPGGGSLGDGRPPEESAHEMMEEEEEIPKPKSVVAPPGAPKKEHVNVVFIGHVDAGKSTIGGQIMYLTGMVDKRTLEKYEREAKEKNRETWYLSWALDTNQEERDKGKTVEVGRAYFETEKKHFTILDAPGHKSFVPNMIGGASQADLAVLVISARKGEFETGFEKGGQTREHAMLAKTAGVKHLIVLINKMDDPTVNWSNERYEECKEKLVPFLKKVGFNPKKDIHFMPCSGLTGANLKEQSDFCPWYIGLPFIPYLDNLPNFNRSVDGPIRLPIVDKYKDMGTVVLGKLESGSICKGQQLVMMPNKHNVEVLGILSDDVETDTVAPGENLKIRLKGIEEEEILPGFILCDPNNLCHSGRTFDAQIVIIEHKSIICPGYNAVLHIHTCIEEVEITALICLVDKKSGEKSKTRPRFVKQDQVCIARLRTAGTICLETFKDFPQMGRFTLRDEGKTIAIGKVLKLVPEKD
GSPT1, sequence (Q96SW2 whole entry): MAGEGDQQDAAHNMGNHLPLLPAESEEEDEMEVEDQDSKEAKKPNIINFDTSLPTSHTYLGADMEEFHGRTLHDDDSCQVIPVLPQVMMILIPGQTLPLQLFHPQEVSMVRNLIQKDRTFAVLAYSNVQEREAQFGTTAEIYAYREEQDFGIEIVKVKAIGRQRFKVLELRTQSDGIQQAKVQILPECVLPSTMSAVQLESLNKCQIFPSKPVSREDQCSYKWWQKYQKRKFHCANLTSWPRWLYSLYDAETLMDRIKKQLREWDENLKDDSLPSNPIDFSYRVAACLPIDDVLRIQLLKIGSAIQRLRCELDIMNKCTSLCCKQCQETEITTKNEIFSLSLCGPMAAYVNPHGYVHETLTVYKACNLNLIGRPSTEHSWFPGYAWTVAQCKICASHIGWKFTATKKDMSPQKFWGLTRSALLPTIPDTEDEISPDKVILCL
GSPT1, sequence (Q16531 whole entry partner): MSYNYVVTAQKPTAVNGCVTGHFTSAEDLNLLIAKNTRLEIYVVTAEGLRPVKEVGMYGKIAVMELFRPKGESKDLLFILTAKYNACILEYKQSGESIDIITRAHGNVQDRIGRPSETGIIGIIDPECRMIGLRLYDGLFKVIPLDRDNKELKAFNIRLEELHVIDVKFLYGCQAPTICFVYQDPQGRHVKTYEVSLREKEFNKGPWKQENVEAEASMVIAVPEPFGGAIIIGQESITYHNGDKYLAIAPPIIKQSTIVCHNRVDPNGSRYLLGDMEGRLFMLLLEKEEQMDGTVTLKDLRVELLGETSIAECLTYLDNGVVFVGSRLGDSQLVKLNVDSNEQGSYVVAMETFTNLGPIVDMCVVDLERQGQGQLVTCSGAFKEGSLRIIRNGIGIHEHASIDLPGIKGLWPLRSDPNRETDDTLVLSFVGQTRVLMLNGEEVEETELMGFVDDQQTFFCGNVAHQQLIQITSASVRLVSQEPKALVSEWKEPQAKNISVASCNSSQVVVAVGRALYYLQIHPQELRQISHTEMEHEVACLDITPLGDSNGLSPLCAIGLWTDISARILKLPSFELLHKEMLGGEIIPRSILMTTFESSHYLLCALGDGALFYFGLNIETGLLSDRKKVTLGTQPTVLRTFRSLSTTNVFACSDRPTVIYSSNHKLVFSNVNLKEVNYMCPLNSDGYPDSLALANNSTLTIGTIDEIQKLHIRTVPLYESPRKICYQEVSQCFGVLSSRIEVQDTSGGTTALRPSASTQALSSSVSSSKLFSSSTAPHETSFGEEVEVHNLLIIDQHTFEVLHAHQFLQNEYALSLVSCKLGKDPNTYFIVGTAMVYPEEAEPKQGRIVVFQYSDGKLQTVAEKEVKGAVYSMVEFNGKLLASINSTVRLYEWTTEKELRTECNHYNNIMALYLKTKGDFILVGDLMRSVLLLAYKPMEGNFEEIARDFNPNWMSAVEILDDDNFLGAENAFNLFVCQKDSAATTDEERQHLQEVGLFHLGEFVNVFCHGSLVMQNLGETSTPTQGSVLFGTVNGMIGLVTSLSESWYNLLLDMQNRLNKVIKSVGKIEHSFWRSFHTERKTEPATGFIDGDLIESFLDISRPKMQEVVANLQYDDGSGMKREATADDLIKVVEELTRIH

As for `Cc1ccc(NC(=O)OCc2ccc3c(c2)C(=O)N(C2CCC(=O)NC2=O)C3)cc1Cl` (centres unmarked) [Compound 210], the “GSPT1 degradation in tumors” value on GSPT1 is “Complete degradation of GSPT1”.
Consider `O=C1CCC(N2Cc3ccc(COC(=O)Nc4cc(OC(F)(F)F)ccc4F)cc3C2=O)C(=O)N1` (centres unmarked) [Compound 345, (2-(2,6-dioxopiperidin-3-yl)-3-oxoisoindolin-5-yl)methyl(2-fluoro-5-(trifluoromethoxy)phenyl)carbamate], for which the “cell viability in Myc-driven and non-Myc-driven NSCLC” value in the experiment with NSCLC cell lines is on record as “cell viability was significantly reduced in only Myc-driven NSCLC”.
